Test results published in paper PMC9516332 (Frontiers in Oncology, 2022).
Read-outs that look alike come from different tables or passages of the source. One block for each molecule: values may come before it.

Key:
[1] = molecular target: panel of 255 wild-type kinases (Homo sapiens, UniProt Q92918); assay: Kinase panel profiling at 1 µmol/L (MSA or IMAP), percentage inhibition; format: biochemical; settings: read-out: %-inhibition at 1 µmol/L, HPK1
[2] = molecular target: panel of 255 wild-type kinases (Homo sapiens, UniProt P05129); settings: kinase PKCγ, 1 µmol/L single concentration, cited from earlier work
[3] = molecular target: T1, panel of 255 wild-type kinases (Homo sapiens, UniProt O15264); settings: p38δ, 1 µmol/L single concentration, cited from earlier work
T1 sequence (O15264 1-365): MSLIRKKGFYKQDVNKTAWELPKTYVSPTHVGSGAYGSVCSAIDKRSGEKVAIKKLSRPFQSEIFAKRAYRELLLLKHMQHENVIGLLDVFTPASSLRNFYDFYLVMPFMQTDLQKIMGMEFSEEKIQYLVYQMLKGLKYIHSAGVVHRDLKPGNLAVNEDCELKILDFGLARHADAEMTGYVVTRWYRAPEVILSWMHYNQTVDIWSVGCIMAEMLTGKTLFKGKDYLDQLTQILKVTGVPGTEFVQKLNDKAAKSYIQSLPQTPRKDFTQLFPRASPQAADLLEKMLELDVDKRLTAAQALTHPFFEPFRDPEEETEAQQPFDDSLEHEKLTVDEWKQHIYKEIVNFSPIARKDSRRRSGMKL

[4] = molecular target: panel of 255 wild-type kinases (Homo sapiens, UniProt Q5VT25); settings: MRCKα, 1 µmol/L single concentration, cited from earlier work
[5] = molecular target: panel of 255 wild-type kinases (Homo sapiens, UniProt Q9NYY3); settings: kinase PLK2, 1 µmol/L single concentration, cited from earlier work
[6] = molecular target: T2, panel of 255 wild-type kinases (Homo sapiens, UniProt Q02156); settings: kinase PKCε, 1 µmol/L single concentration, cited from earlier work
T2 sequence (Q02156 1-737): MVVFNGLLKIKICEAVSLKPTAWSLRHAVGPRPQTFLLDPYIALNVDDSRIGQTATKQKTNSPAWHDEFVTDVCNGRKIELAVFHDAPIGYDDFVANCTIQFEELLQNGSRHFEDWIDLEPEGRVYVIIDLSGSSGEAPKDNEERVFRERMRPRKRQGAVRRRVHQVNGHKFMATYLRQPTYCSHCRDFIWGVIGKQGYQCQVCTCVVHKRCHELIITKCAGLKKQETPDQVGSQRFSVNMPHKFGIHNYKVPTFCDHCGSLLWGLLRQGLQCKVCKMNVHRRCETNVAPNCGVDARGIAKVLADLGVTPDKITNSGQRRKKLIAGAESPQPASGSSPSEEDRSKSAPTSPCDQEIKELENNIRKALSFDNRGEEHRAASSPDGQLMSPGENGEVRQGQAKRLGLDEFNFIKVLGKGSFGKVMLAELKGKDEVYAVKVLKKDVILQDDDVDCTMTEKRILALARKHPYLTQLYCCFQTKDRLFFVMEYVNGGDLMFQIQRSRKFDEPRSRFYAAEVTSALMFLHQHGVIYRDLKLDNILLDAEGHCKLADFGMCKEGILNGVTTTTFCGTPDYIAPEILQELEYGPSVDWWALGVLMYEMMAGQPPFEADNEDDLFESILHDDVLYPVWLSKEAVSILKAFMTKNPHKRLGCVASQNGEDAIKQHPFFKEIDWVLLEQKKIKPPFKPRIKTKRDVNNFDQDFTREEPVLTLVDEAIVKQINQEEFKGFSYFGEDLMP

[7] = molecular target: panel of 255 wild-type kinases (Homo sapiens, UniProt Q16816); settings: kinase PHKG1, 1 µmol/L single concentration, cited from earlier work
[8] = molecular target: panel of 255 wild-type kinases (Homo sapiens, UniProt P17948); settings: kinase FLT1, 1 µmol/L single concentration, cited from earlier work
[9] = molecular target: panel of 255 wild-type kinases (Homo sapiens, UniProt Q9UBS0); settings: p70S6Kβ, 1 µmol/L single concentration, cited from earlier work
[10] = molecular target: panel of 255 wild-type kinases (Homo sapiens, UniProt P45984); settings: kinase JNK2, 1 µmol/L single concentration, cited from earlier work
[11] = molecular target: panel of 255 wild-type kinases (Homo sapiens, UniProt Q15119); settings: kinase PDHK2, 1 µmol/L single concentration, cited from earlier work
[12] = molecular target: panel of 255 wild-type kinases (Homo sapiens, UniProt Q8TDX7); settings: NEK7, 1 µmol/L single concentration, cited from earlier work
[13] = molecular target: panel of 255 wild-type kinases (Homo sapiens, UniProt Q13882); settings: BRK kinase assay, 1 µmol/L single concentration, cited from earlier work
[14] = test system: 134 cancer cell lines
[15] = kinase HPK1, 1 µmol/L single concentration
[16] = ref DOI: 10.1158/1535-7163.MCT-18-0877
[17] = ref DOI: 10.1371/journal.pone.0092146

SMILES: Cn1cc(-c2cc3c(N4CCN(c5ncc([C@@](C)(N)c6ccc(F)cc6)cn5)CC4)ncnn3c2)cn1 [avapritinib]
inhibition at 1 µM [1, 15]: 15%

SMILES: CNC(=O)c1ccc(-c2cnc3ncc(Cc4ccc5ncccc5c4)n3n2)cc1F [capmatinib]
inhibition at 1 µM [1]: 0.392%

IC50 [14]: 3.85 µM
SMILES: Cc1cc(Nc2ncc(Cl)c(Nc3ccccc3S(=O)(=O)C(C)C)n2)c(OC(C)C)cc1C1CCNCC1 [ceritinib]
%-inhibition at 1 µmol/L, PKCγ [2, 16]: -1.46%
%-inhibition, p38δ [3, 16]: 3%
%-inhibition, MRCKα [4, 16]: 1.61%
%-inhibition at 1 µmol/L, PLK2 [5, 16]: -3.54%
%-inhibition at 1 µmol/L, PKCε [6, 16]: 11%
%-inhibition at 1 µmol/L, PHKG1 [7, 16]: 91%
%-inhibition at 1 µmol/L, FLT1 [8, 16]: 16%
%-inhibition, p70S6Kβ [9, 16]: 70%
%-inhibition at 1 µmol/L, JNK2 [10, 16]: 16%
%-inhibition at 1 µmol/L, PDHK2 [11, 16]: -1.41%
%-inhibition, NEK7 [12, 16]: -0.251%
%-inhibition BRK [13, 16]: 98%

SMILES: O=C(c1ccc(F)c(F)c1Nc1ccc(I)cc1F)N1CC(O)([C@@H]2CCCCN2)C1 [cobimetinib]
%-inhibition at 1 µmol/L, PKCγ [2, 16]: -1.52%
%-inhibition, p38δ [3, 16]: -6%
%-inhibition, MRCKα [4, 16]: -7%
%-inhibition at 1 µmol/L, PLK2 [5, 16]: -0.309%
%-inhibition at 1 µmol/L, PKCε [6, 16]: 4.22%
%-inhibition at 1 µmol/L, PHKG1 [7, 16]: 3%
%-inhibition at 1 µmol/L, FLT1 [8, 16]: -0.349%
%-inhibition, p70S6Kβ [9, 16]: 5.59%
%-inhibition at 1 µmol/L, JNK2 [10, 16]: -2.51%
%-inhibition at 1 µmol/L, PDHK2 [11, 16]: -0.379%
%-inhibition, NEK7 [12, 16]: 1.68%
%-inhibition BRK [13, 16]: -1%
IC50 [14]: 0.056 µM

SMILES: CC(C)(C)c1nc(-c2cccc(NS(=O)(=O)c3c(F)cccc3F)c2F)c(-c2ccnc(N)n2)s1 [dabrafenib]
%-inhibition at 1 µmol/L, PKCγ [2, 17]: -0.381%
%-inhibition, p38δ [3, 17]: -3.43%
%-inhibition, MRCKα [4, 17]: -1.84%
%-inhibition at 1 µmol/L, PLK2 [5, 17]: -4.64%
%-inhibition at 1 µmol/L, PKCε [6, 17]: 5%
%-inhibition at 1 µmol/L, PHKG1 [7, 17]: -0.59%
%-inhibition at 1 µmol/L, FLT1 [8, 17]: 62%
%-inhibition, p70S6Kβ [9, 17]: -0.554%
%-inhibition at 1 µmol/L, JNK2 [10, 17]: -0.947%
%-inhibition at 1 µmol/L, PDHK2 [11, 17]: 0.108%
%-inhibition, NEK7 [12, 17]: 2.28%
%-inhibition BRK [13, 17]: 98%
IC50 [14]: 1.08 µM

SMILES: CCN1CCN(c2ccc(Nc3cc(N(C)C(=O)Nc4c(Cl)c(OC)cc(OC)c4Cl)ncn3)cc2)CC1 [infigratinib]
inhibition at 1 µM [1, 15]: 65%
IC50 [14]: > 3.16 µM

inhibition at 1 µM [1, 15]: 1%
IC50 [14]: > 31.6 µM
SMILES: O=C(Nc1cnn2ccc(N3CCC[C@@H]3c3cc(F)ccc3F)nc12)N1CC[C@H](O)C1 [larotrectinib]

SMILES: CCN1C(=O)N(c2c(F)c(OC)cc(OC)c2F)Cc2cnc3[nH]c(CN4CCOCC4)cc3c21 [pemigatinib]
inhibition at 1 µM [1, 15]: 21%

inhibition at 1 µM [1, 15]: 50%
IC50 [14]: 2.64 µM
SMILES: CO[C@]1(C(=O)N[C@@H](C)c2ccc(-n3cc(F)cn3)nc2)CC[C@H](c2nc(C)cc(Nc3cc(C)[nH]n3)n2)CC1 [pralsetinib]

inhibition at 1 µM [1, 15]: 8.44%
IC50 [14]: 3.85 µM
SMILES: COc1ccc(CN2C3CC2CN(c2ccc(-c4cc(OCC(C)(C)O)cn5ncc(C#N)c45)cn2)C3)cn1 [selpercatinib]

inhibition at 1 µM [1, 15]: 9.49%
IC50 [14]: 0.099 µM
SMILES: Cn1cnc2c(F)c(Nc3ccc(Br)cc3Cl)c(C(=O)NOCCO)cc21 [selumetinib]

SMILES: CC(=O)Nc1cccc(-n2c(=O)n(C3CC3)c(=O)c3c(Nc4ccc(I)cc4F)n(C)c(=O)c(C)c32)c1 [trametinib]
%-inhibition at 1 µmol/L, PKCγ [2, 17]: 0.381%
%-inhibition, p38δ [3, 17]: -2.7%
%-inhibition, MRCKα [4, 17]: -0.565%
%-inhibition at 1 µmol/L, PLK2 [5, 17]: -1.65%
%-inhibition at 1 µmol/L, PKCε [6, 17]: 6%
%-inhibition at 1 µmol/L, PHKG1 [7, 17]: -2.24%
%-inhibition at 1 µmol/L, FLT1 [8, 17]: -2.75%
%-inhibition, p70S6Kβ [9, 17]: -1%
%-inhibition at 1 µmol/L, JNK2 [10, 17]: -4.73%
%-inhibition at 1 µmol/L, PDHK2 [11, 17]: -0.542%
%-inhibition, NEK7 [12, 17]: 1.63%
%-inhibition BRK [13, 17]: -5.53%
IC50 [14]: 0.076 µM

inhibition at 1 µM [1, 15]: 4%
IC50 [14]: 6.88 µM
SMILES: Cc1cc(Nc2ncnc3ccc(NC4=NC(C)(C)CO4)cc23)ccc1Oc1ccn2ncnc2c1 [tucatinib]

SMILES: CCCS(=O)(=O)Nc1ccc(F)c(C(=O)c2c[nH]c3ncc(-c4ccc(Cl)cc4)cc23)c1F [vemurafenib]
%-inhibition at 1 µmol/L, PKCγ [2, 17]: -4.39%
%-inhibition, p38δ [3, 17]: 8%
%-inhibition, MRCKα [4, 17]: 0.383%
%-inhibition at 1 µmol/L, PLK2 [5, 17]: -1.85%
%-inhibition at 1 µmol/L, PKCε [6, 17]: -8%
%-inhibition at 1 µmol/L, PHKG1 [7, 17]: -0.913%
%-inhibition at 1 µmol/L, FLT1 [8, 17]: 25%
%-inhibition, p70S6Kβ [9, 17]: 0.235%
%-inhibition at 1 µmol/L, JNK2 [10, 17]: -0.0632%
%-inhibition at 1 µmol/L, PDHK2 [11, 17]: 3.73%
%-inhibition, NEK7 [12, 17]: -3.56%
%-inhibition BRK [13, 17]: 98%
IC50 [14]: > 31.6 µM

SMILES: C=CC(=O)N1CCC([C@@H]2CCNc3c(C(N)=O)c(-c4ccc(Oc5ccccc5)cc4)nn32)CC1 [zanubrutinib]
inhibition at 1 µM [1, 15]: 1.75%
